{"source": "patent US8138166B2", "about": "“Method to induce fatty liver in animal” (Taipei Medical University, priority 2010, dated 2012)", "key": {"[1]": {"tested_on": "succinate cytochrome c reductase (SCCR), mitochondrial complex II and III", "experiment": "SCCR activity in hepatocytes", "assay_type": "in vivo, SD rats", "settings": "experimental group: 60% high fat diet + rotenone i.p., 8 weeks", "description": "(§1) SD rats are selected to use as the laboratory animals in the present embodiment. All SD rats are bred at the cages, and adequate feeds and water are given during the adaptive period and the experimental period. After the adaptive period, the SD rats are randomly divided into three groups concluding a control group, an experimental group, and a contrast group, and there are 6 SD rats in each group. In the control group, the SD rats are fed with AIN-93M diet. The SD rats in the experimental group are fed with the modified AIN-93M diet whose fat calorie is accounted for 60% of total calorie thereof, and the mitochondrial inhibitor (rotenone) is injected into the SD rats via an intraperitoneal injection once every two days. The dosage of the rotenone is about 2.5 mg/kg/day. The components of the diet and the fat percentage in the contrast group and the experimental group are the same. Normal saline is injected into the SD rats in the contrast group via the intraperitoneal injection to differentiate from the experimental group. After feeding 8 weeks, the SD rats in each group are sacrificed to collect arteria coeliaca blood and to obtain livers after perfusing 0.9% normal saline thereinto for determining the pathological analysis of the liver, the blood biochemical analysis and the liver biochemical analysis.\n(§2) Rotenone is hydrophobic, and can diffuse to organelles including mitochondria. […]"}, "[2]": {"tested_on": "NADH cytochrome c reductase (NCCR), mitochondrial complex I and III", "experiment": "NCCR activity in hepatocytes", "assay_type": "in vivo, SD rats", "settings": "experimental group: 60% high fat diet + rotenone i.p., 8 weeks", "description": "as §1, §2"}, "[3]": {"tested_on": "cytochrome c oxidase (CCO), mitochondrial complex IV", "experiment": "CCO activity in hepatocytes", "assay_type": "in vivo, SD rats", "settings": "experimental group: 60% high fat diet + rotenone i.p., 8 weeks", "description": "as §1, §2"}, "liver [4]": {"tested_on": "liver", "experiment": "Liver histopathology (H&E staining) of SD rats fed high fat diet and injected with rotenone", "assay_type": "in vivo", "settings": "experimental group: 60% high fat diet + rotenone 2.5 mg/kg/day i.p., 8 weeks", "description": "as §1\nLivers of the SD rats in each group are all stained by H&E staining. […]"}, "liver [5]": {"tested_on": "liver", "experiment": "Liver biochemical analysis (liver lipids, TBARS, TNF-α, hydroxyproline)", "assay_type": "in vivo, SD rats", "settings": "experimental group: 60% high fat diet + rotenone i.p., 8 weeks", "description": "as §1\nThe lipid extracts are obtained from the livers of the SD rats in each group to analyze the contents of total cholesterol, triglyceride, and non-esterified fatty acids, as shown below Table 2.\nAdditionally, if oxidative stress, such as reactive oxygen species (ROS), is increased in vivo, lipid peroxides may be increased. Because the half life of the ROS is shorter than that of the lipid peroxides, the lipid peroxides, such as thiobarbituric acid-reactive-substance (TBARS), are used as the oxidative stress index. The livers of the SD rats in each group are respectively prepared to obtain homogeneous liquids for analyzing the concentration of the TBARS by a fluorophotometer. […] The concentrations of the TBARS in the control group, the experimental group and the contrast group are respectively 0.51±0.05, 2.18±0.19 and 1.15±0.09 μM/mg protein. That means in the experimental group, the oxidative stress in the livers of the SD rats is highest.\nIn the NAFLD progression, when high oxidative stress is existed in a liver for a long time, inflammatory cytokines, such as tumor necrosis factor-alpha (TNF-α), are increased. After the SD rats are sacrificed, the concentration of the TNF-α is determined to analyze whether the inflammatory response is induced or not. […] The concentrations of TNF-α in the control group, the experimental group, and the contrast group are respectively 13.96±1.05, 21.34±0.77, and 19.51±1.11 pg/mg protein. Following the results as set forth, the livers of rats in the experimental group have the inflammatory response. […] But, once livers are existed in high oxidative stress, the liver injuries thereof from simple steatosis to necrosis or fibrosis are performed. Therefore, the collagen index (i.e. the fibrosis index), hydroxyproline, in the livers should be determined. The concentrations of the hydroxyproline in the control group, the experimental group, and the contrast group are 3.32±1.05, 6.68±0.77, and 4.05±1.11 μg/mg protein, respectively. It indicates the concentration of the hydroxyproline in the experimental group is higher than those of in the control group and the contrast group."}, "mitochondrial complex I": {"tested_on": "mitochondrial complex I", "experiment": "Mitochondrial complex I activity inferred from NCCR and SCCR activity", "assay_type": "in vivo, SD rats", "settings": "experimental group: 60% high fat diet + rotenone i.p., 8 weeks; combined NCCR and SCCR results", "description": "as §1, §2"}, "Visceral fat weight": {"experiment": "Visceral fat weight", "assay_type": "in vivo, SD rats", "settings": "experimental group: 60% high fat diet + rotenone 2.5 mg/kg/day i.p. once every two days, 8 weeks; epididymis and perirenal adipose tissue", "description": "as §1, with “analysis. […]” for “analysis.”"}, "[6]": {"experiment": "Blood biochemical analysis and liver function index", "assay_type": "in vivo, SD rats", "settings": "experimental group: 60% high fat diet + rotenone i.p., 8 weeks", "description": "as §1\nThe blood biochemical analyses of cholesterol, triglyceride, and non-esterified fatty acids are examined. The liver function indexes of aspartate aminotransferase (AST) and alanine aminotransferase (ALT) are also analyzed."}}, "data": [{"smiles": "C=C(C)[C@H]1Cc2c(ccc3c2O[C@@H]2COc4cc(OC)c(OC)cc4[C@@H]2C3=O)O1", "note": "[rotenone]", "values": [{"measurement": "SCCR activity", "setting": "[1]", "result": "0.51 ± 0.05 nmol/cytochrome c reduced/min/mg protein"}, {"measurement": "NCCR activity", "setting": "[2]", "result": "0.68 ± 0.26 nmol/cytochrome c reduced/min/mg protein"}, {"measurement": "CCO activity", "setting": "[3]", "result": "5.57 ± 2.88 nmol/cytochrome c oxidized/min/mg protein"}, {"measurement": "cell morphology (H&E staining of liver)", "setting": "liver [4]", "result": "lipid drops and ballooning degeneration"}, {"measurement": "concentration of TNF-α", "setting": "liver [5]", "result": "21.34±0.77", "unit": "pg/mg protein"}, {"measurement": "concentration of hydroxyproline (liver)", "setting": "liver [5]; collagen/fibrosis index", "result": "6.68±0.77", "unit": "μg/mg protein"}, {"measurement": "concentration of TBARS (liver)", "setting": "liver [5]; liver homogenate, fluorophotometer", "result": "2.18±0.19", "unit": "μM/mg protein"}, {"measurement": "Non-esterified fatty acids (liver)", "setting": "liver [5]; liver lipid extract", "result": "5.02 ± 0.38", "unit": "µmol/g"}, {"measurement": "Total cholesterol (liver)", "setting": "liver [5]; liver lipid extract", "result": "131.74 ± 5.30", "unit": "mg/dL"}, {"measurement": "Triglyceride (liver)", "setting": "liver [5]; liver lipid extract", "result": "6.78 ± 0.55", "unit": "mg/dL"}, {"measurement": "mitochondrial complex I activity versus control group and contrast group", "setting": "mitochondrial complex I", "result": "lower"}, {"measurement": "visceral fat weight", "setting": "Visceral fat weight", "result": "51.28±3.41", "unit": "grams"}, {"measurement": "ALT", "setting": "[6]", "result": "39.4 ± 2.61", "unit": "IU/L"}, {"measurement": "AST", "setting": "[6]", "result": "90.1 ± 13.68", "unit": "IU/L"}, {"measurement": "Cholesterol (blood)", "setting": "[6]", "result": "73.4 ± 7.61", "unit": "mg/dL"}, {"measurement": "Triglyceride (blood)", "setting": "[6]", "result": "60.1 ± 10.15", "unit": "mg/dL"}]}]}
